Experimental data: patent publication US20080108548A1, “Food Composition For Rapidly Attenuating Inflammatory Responses” (priority 2004, published 2008)

Tested on: rats subjected to hemorrhagic shock
Protocol: Using the non-lethal hemorrhagic shock model as described earlier (Luyer et al., Ann. Surg. 239:257-264, 2004; Luyer et al. Shock 21:65-71, 2004) rats were anesthetised, the femoral artery was dissected and cannulated. Mean arterial pressure (MAP) and heart rate were continuously recorded for 50 min. At the time of shock (t=0), 2.1 ml blood per 100 g body weight was taken at a rate of 1 ml/min (34-40% of total blood volume). At 45 min before induction of hemorrhagic shock, rats were subjected to vagotomy or sham vagotomy. In vagotomised animals a ventral cervical incision was made and both vagal trunks exposed. The vagus nerve was ligated at both ends using 4-0 silk suture and divided. In sham-operated animals, both vagal trunks were exposed, but the vagus nerve was not ligated and divided.
Before the experiments, 18 rats were fasted, 18 were fed with low-fat feed (6.9 en % protein, 75.4 en % carbohydrate, 16.7 en % fat) and 18 were fat with a high-fat feed according to the invention (6.9 en % protein, 40.9 en % carbohydrate, 52.2 en % fat). The low-fat and high-fat feeds were isocaloric. 3 ml was given at 18 h before hemorrhagic shock, and 0.75 ml at 2 h and 45 min before hemorrhagic by oral gavage. Fasted and high-fat fed rats underwent vagotomy or sham vagotomy. To investigate the role of CCK, six high-fat fed animas were injected i.v. with CCK-A (500 μg/kg) and CCK-B (500 μg/kg) receptor antagonists and six with control vehicle 25 min before induction of shock. […] At 90 min after hemorrhagic shock, blood was taken and segments of small bowel were harvested for determination of gut permeability. Plasma was separated by centrifugation, frozen immediately and stored until analysis.

[1] = high-fat fed rats given the blocker i.v. 25 min before shock, compared to high-fat controls
[2] = high-fat rats treated with chlorisondamine versus chlorisondamine-treated fasted rats

C[N+](C)(C)CC[N+]1(C)Cc2c(Cl)c(Cl)c(Cl)c(Cl)c2C1 [chlorisondamine]
bacterial translocation to distant organs [1]: increased | plasma endotoxin [1]: elevated | inhibitory effect of high-fat enteral nutrition on circulating TNF-α (high-fat fed sham-vagotomised rats, i.v. 25 min before shock): abrogated | IL-6 levels [2]: comparable | TNF-α levels [2]: comparable | MAP (rat, in vivo): significantly lower | additional hypotension or changes in heart rate (rat, in vivo): did not cause | decrease in MAP associated with administration (rat, in vivo, iv): 100 to 65 mm Hg
